Measurements reported in US20240226054A9, “AGENTS AND METHODS FOR PREVENTING AND TREATING SKELETAL MUSCLE DISEASES” (The Regents Of the University of California, priority 2022, published 2024).
“Also recorded” adds a separate entry of the source. Where two headings read alike, the source gives them in different places.

Legend:
[1] = tested on: soleus muscle from the Nav1.4-R669H mouse; assay type: cell-based
Experimental: (§1) Mouse Model of HypoPP. Knock-in mutant mouse models of HypoPP were previously generated; Type 1 with a missense mutation of the Cav1.1 calcium channel (Cacnals p.R528H) and Type 2 with a missense mutation of the Nav1.4 sodium channel (Scn4a p.R663H) homologous to the p.R669H missense mutation in patients with HypoPP Type 2. Mutant mice have a robust HypoPP phenotype with loss of force and paradoxical depolarization of skeletal muscle in response to a challenge in low extracellular [K^+] (<3 mM) or to intravenous administration of insulin plus glucose.
Ex vivo Contraction Studies. The outcome measure for susceptibility to HypoPP was the peak isometric force of the soleus muscle, in response to a tetanic stimulation, as previously described. In brief, after euthanizing the animal, the extensor digitorum longus (EDL) muscle or the soleus muscle was dissected free and suspended in a tissue bath held at 37° C. […] Muscles were suspended in a bicarbonate-buffered bath that was bubbled continuously with 5% CO2/95% 02 to maintain a pH of 7.4. The standard bath consisted of (in mM): 118 NaCl, 4.75 KCl, 1.18 MgSO4, 2.54 CaCl2), 1.18 NaH2PO4, 10 glucose, and 24.8 NaHCO3. The low-K^+ solution was identical, except for the reduction of KCl to 2 mM by replacement with NaCl. The osmolality of all solutions was 290 mOsm. Retigabine (gift from Prof. M. Taglialatela, Univ. […] The Kv7 inhibitor, XE991 (Sigma-Aldrich), was prepared in as a 100 mM DMSO stock solution and applied to muscle in a […] bath solution.
Electrical stimulation was applied by a pair of platinum wires, oriented perpendicular to the long axis of the soleus muscle. Suprathreshold stimulation (80 mA) was applied as a tetanic burst (40 pulses, 0.4 msec, at 100 Hz), under computer control. All bath solutions contained 0.25 mM D-tubocurarine (Sigma-Aldrich) to prevent any contribution to muscle excitation from motor nerve endings. Muscle force was measured with a stiff strain gain (Forte 25, World Precision Instruments) and digitally sampled at 5 KHz. Muscle contractility was monitored by measuring the peak isometric force every two minutes, and test solutions were applied by complete exchange of the bath solution.
The efficacy of potassium channel openers to prevent the loss of force in HypoPP muscle was assessed by measuring isometric contractions, ex vivo, in both control (4.7 mM) and low extracellular [K^+] (2.0 mM). The HypoPP phenotype is shown for the drug-free responses of the soleus muscle from an Nav1.4-R669H mouse in the left panel of FIG. 1A. The peak isometric force during the tetanic contraction (100 Hz stimulation) was initially 11.7 gm in control [K^+], and then decreased to 7.6 gm (35% decrease) after 4 min. in 2 mM [K^+]. The loss of force is reversible, upon return to 4.7 mM [K^+] (e.g., see FIG. 1B).
A method to quantify the extent of protection from loss of force by retigabine is illustrated in FIG. 2. This example was selected to illustrate the maximum variability in the extent of protection for the oscillations of soleus muscle force within a single trial (compare the responses at 24 min to those at 40 min.). […] The relative protection was calculated from the responses for each pair of soleus muscles from the same mouse serving as an internal control. In almost every trial (22 out of 24), two clear minima occurred during the 30 min. low-K^+ challenge. The relative protection for the retigabine response, defined as 1−(force loss in retigabine)/(force loss in control) was calculated for each of the two minima, and the average value was used as the quantitative estimate for the retigabine protection in that trial. Each soleus muscle was used for only a single trial (i.e. control or retigabine) because cumulative effects and run-down may occur if this long protocol (typically 70 min.) was repeated.

human HypoPP muscle = conditions: 100 mM pinacidil; cited from earlier work
[2] = tested on: EDL muscle from the Cav1.1-R528H mouse; test: Ex vivo contraction test, low-K+ challenge, HypoPP EDL muscle; assay type: cell-based
Experimental: as §1
Ex vivo Contraction Studies. The outcome measure for susceptibility to HypoPP was the peak isometric force of the soleus muscle, in response to a tetanic stimulation, as previously described. In brief, after euthanizing the animal, the extensor digitorum longus (EDL) muscle or the soleus muscle was dissected free and suspended in a tissue bath held at 37° C. […] Muscles were suspended in a bicarbonate-buffered bath that was bubbled continuously with 5% CO2/95% 02 to maintain a pH of 7.4. The standard bath consisted of (in mM): 118 NaCl, 4.75 KCl, 1.18 MgSO4, 2.54 CaCl2), 1.18 NaH2PO4, 10 glucose, and 24.8 NaHCO3. […]
Electrical stimulation was applied by a pair of platinum wires, oriented perpendicular to the long axis of the soleus muscle. […] Muscle force was measured with a stiff strain gain (Forte 25, World Precision Instruments) and digitally sampled at 5 KHz. Muscle contractility was monitored by measuring the peak isometric force every two minutes, and test solutions were applied by complete exchange of the bath solution.
A method to quantify the extent of protection from loss of force by retigabine is illustrated in FIG. 2. […] The relative protection was calculated from the responses for each pair of soleus muscles from the same mouse serving as an internal control. […] The relative protection for the retigabine response, defined as 1−(force loss in retigabine)/(force loss in control) was calculated for each of the two minima, and the average value was used as the quantitative estimate for the retigabine protection in that trial. […]

mouse = conditions: 30 mg/kg retigabine; cited from earlier work
rat = conditions: 30 mg/kg retigabine; cited from earlier work
Kv7.1 = Kv7.1 (Homo sapiens, UniProt P51787); conditions: cited from earlier work
Sequence of Kv7.1 (P51787 whole entry): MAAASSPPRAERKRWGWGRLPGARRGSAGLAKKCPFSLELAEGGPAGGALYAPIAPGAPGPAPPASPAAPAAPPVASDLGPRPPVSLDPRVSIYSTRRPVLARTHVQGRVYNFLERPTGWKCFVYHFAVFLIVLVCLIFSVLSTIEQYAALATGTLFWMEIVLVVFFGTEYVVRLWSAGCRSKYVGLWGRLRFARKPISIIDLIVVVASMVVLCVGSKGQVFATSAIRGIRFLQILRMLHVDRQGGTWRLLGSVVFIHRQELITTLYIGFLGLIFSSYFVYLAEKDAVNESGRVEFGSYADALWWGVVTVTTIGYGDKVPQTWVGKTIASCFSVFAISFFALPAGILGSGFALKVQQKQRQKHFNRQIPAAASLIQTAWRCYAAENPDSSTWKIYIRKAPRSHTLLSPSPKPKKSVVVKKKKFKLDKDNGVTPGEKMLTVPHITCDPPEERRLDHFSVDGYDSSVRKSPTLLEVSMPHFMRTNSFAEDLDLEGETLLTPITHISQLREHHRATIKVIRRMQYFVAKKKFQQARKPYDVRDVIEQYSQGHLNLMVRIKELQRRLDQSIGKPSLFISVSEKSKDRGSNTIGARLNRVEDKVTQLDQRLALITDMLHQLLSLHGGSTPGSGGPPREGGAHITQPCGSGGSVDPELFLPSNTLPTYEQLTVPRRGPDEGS

[3] = tested on: EDL fibers from the Nav1.4-R669H mouse; test: Membrane potential measurements (resting potential, microelectrode impalement); assay type: cell-based
Experimental: Membrane Potential Measurements. The membrane potential was recorded by impalement of superficial fibers from an ex vivo whole mount of the EDL muscle. Long-duration stable recording of the resting potential was achieved by using an orthogonal approach to the fiber with fine-tipped microelectrodes (resistance of 15-20 MW, filled with 3 M KCl). The bath solution was the same as that used for the ex vivo contraction studies, continuously bubbled with 5% CO2/95% O2, with a flow rate of ˜3 ml/min of the 0.3 ml recording chamber.
The impairment of contraction during an episode of HypoPP is caused by sustained depolarization, which inactivates sodium channels and reduces muscle fiber excitability. In HypoPP, ictal depolarization of the resting potential (Vrest) paradoxically occurs in low K^+ that would normally hyperpolarize the membrane from a negative shift of the K^+ Nernst potential (EK). It was tested whether retigabine prevents or reverses this paradoxical depolarization of HypoPP fibers exposed to low K^+. […] Reduction of K^+ to 2 mM or even 1 mM caused hyperpolarization of WT fibers, as expected from the negative shift of EK (FIG. 5A, gray shaded regions). At an extremely low K^+ of 0.5 mM, even WT fibers paradoxically depolarized (magenta region) as previously described. For EDL fibers from the Nav1.4-R669H mouse, the more modest K^+ reductions to 2 mM or 1 mM elicited paradoxical depolarization, which is the membrane potential equivalent of ictal HypoPP. […] These observations support the view that the beneficial effects of retigabine occur by a stabilizing effect on the normally polarized value of Vrest.

[4] = tested on: soleus muscle obtained from the knock-in mutant mouse model of HyperPP; test: In vitro contraction test, high K challenge, HyperPP soleus muscle; assay type: cell-based
Experimental: The two paired muscles (left and right) were tested in separate organ baths. […] At 40 min into the study, a high K challenge was performed by exchanging the 4.7 mM K+ bath with one containing 10 mM K+.

[5] = tested on: mouse muscle (mouse models of myotonia); conditions: cited from earlier work
[6] = cited from earlier work
[7] = chronic use as antiepileptic, cited from earlier work
[8] = tested on: pharmacological model of Andersen-Tawil Syndrome (barium blocks Kir potassium channels); test: Low K challenge in pharmacological model of Andersen-Tawil Syndrome (50 μM barium); assay type: cell-based; conditions: pre-administration of 10 μM retigabine
Experimental: A pharmacological model of Andersen-Tawil Syndrome (ATS) is created, in vitro, with a low concentration of barium (50 μM), which blocks Kir potassium channels. Kir2.1 is deficient from loss of function mutations of the KCNJ2 gene in ATS.

Question: For `Cc1cc(N2CCc3cc(F)ccc3C2)cc(C)c1NC(=O)CC(C)(C)C` [XEN1101, N-[4-(6-fluoro-3,4-dihydro-1H-isoquinolin-2-yl)-2,6-dimethylphenyl]-3,3-dimethylbutanamide], which “increase in baseline force” value ([1]; XEN1101 10 μM at 10 min) is on record?
Answer: Its value is 20%.

Question: Which “protection against loss of force” value (human HypoPP muscle) does the source give for `CC(N/C(=N\C#N)Nc1ccncc1)C(C)(C)C` (centres unmarked) [pinacidil] here?
Answer: The value was “protect against loss of force”.

Question: And the “protection from loss of force in a low-K+ challenge” value ([1]; pinacidil pre-treatment)?
Answer: The value was “protects HypoPP muscle from a loss of force”.

Question: For `CCOC(=O)Nc1ccc(NCc2ccc(F)cc2)cc1N` [retigabine, ethyl [2-amino-4-[[(4-fluorophenyl)methyl]amino]phenyl]carbamate], which “relative peak force, sustained value after recovery” value ([2]; 10 μM retigabine in 2 mM K+, EDL) is on record?
Answer: Its value is 0.83.

Question: And the “recovery from on-going loss of force in low K+” value ([2]; 10 μM retigabine, vs contralateral control)?
Answer: The value was “Rescue; also recorded: induced a recovery of relative peak force”.

Question: And the “relative force before the low-K+ challenge on addition of retigabine” value ([2]; 0.1 to 20 mM, Cav1.1-R528H EDL)?
Answer: Its value is “not affected”.

Question: And the “force with tetanic contractions lasting seconds” value (mouse)?
Answer: Its value is “loss of force”.

Question: And the “force with tetanic contractions lasting seconds” value (rat)?
Answer: Its value is “loss of force”.

Question: And the “sensitivity of Kv7.1 to retigabine relative to Kv7.2-Kv7.5 (fold less sensitive)” value (Kv7.1)?
Answer: The value was 100 fold.

Question: And the “protection from low-K+ induced loss of force” value ([1]; 1 μM retigabine pre-treatment)?
Answer: Its value is “substantial protection”.

Question: What about the “loss of peak force during 30 min challenge with 2 mM K+” value ([1]; 2 μM retigabine pre-treatment) of the same compound?
Answer: The value was “markedly attenuated the loss of peak force”.

Question: What about the “trials with enhanced recovery” value ([1]; 10 μM retigabine applied during 2 mM K+) of the same compound?
Answer: Its value is 5 of 6.

Question: What about the “relative peak force, sustained value after recovery” value ([1]; 10 μM retigabine in 2 mM K+, soleus) of the same compound?
Answer: The value was 0.83.

Question: And the “protection from low-K+ induced loss of force” value ([1]; 10 μM retigabine pre-treatment, K+ 4.7 mM to 2 mM)?
Answer: Its value is “completely suppressed any detectable loss of force”.

Question: What about the “relative force in the 2 mM [K+] challenge” value ([1]; 10 μM retigabine pre-treatment, representative responses FIG. 1B) of the same compound?
Answer: The value was over 0.85.

Question: What about the “improved level of tetanic force in retigabine, of baseline” value ([1]; 10 μM retigabine, still in 2 mM K+ bath, n=3) of the same compound?
Answer: Its value is 83.2%.

Question: And the “relative force before the low-K+ challenge on addition of retigabine” value ([1]; 0.1 to 20 mM, Nav1.4-R669H soleus)?
Answer: Its value is “not affected”.

Question: What about the “baseline force in 4.7 mM K+” value ([1]; bath containing 10 μM retigabine) of the same compound?
Answer: Its value is “unchanged”.

Question: And the “impairment of peak isometric force” value ([1]; up to 20 μM retigabine, 400 msec tetanic contraction every two minutes for two hrs)?
Answer: The value was “no impairment”.

Question: And the “Vrest of normally polarized muscle fibers” value ([3]; 4.7 K+, retigabine added)?
Answer: The value was “does not affect Vrest”.

Question: What about the “resting potential of paradoxically depolarized HypoPP fibers (rescue)” value ([3]; retigabine added while low K+ unchanged) of the same compound?
Answer: The value was “repolarized to the normal Vrest; also recorded: induced fiber repolarization”.

Question: And the “paradoxical depolarization of HypoPP fibers during low K+ challenge (protection)” value ([3]; retigabine applied before low K+ (1.0 or 2.0 mM))?
Answer: The value was “prevented the paradoxical depolarization”.

Question: What about the “attenuation of the loss of force” value ([4]; 10 μM retigabine pre-treatment, 10 mM K+ challenge) of the same compound?
Answer: The value was “about 50%”.

Question: And the “maximal force after retigabine before challenge (relative)” value ([4]; 10 μM retigabine, 4.7 mM K+)?
Answer: The value was “about 1.0”.

Question: What about the “prevention of loss of force in HyperPP model” value ([4]; retigabine (10 μM)) of the same compound?
Answer: Its value is “partially effective”.

Question: And the “recovery of force on return of bath K+ to 4.7 mM” value ([4]; retigabine exposed muscle)?
Answer: The value was “full recovery of force”.

Question: And the “fiber input resistance, resting potential or action potential properties (current-clamp)” value ([5]; 20 mM retigabine)?
Answer: The value was “did not detect a change”.

Question: What about the “reduction of ex vivo tetanic force” value ([5]; 20 or 30 mM retigabine) of the same compound?
Answer: The value was “did not report a reduction”.

Question: And the “after-discharges in mouse models of myotonia” value ([5]; low-dose retigabine)?
Answer: Its value is “suppresses after-discharges”.

Question: What about the “protein binding (assumed)” value ([6]; assumption for unbound fraction) of the same compound?
Answer: Its value is 80%.

Question: What about the Cmax ([6]; single 100 mg oral dose) of the same compound?
Answer: Its Cmax is 390 ng/mL.

Question: And the half-life ([6]; single 100 mg oral dose)?
Answer: Its half-life is 8 h.

Question: What about the “side effects leading to discontinuation” value [7] of the same compound?
Answer: Its value is “skin discoloration”.

Question: What about the “side effects leading to discontinuation” value ([7]; listed as Retigabine) of the same compound?
Answer: Its value is “skin discoloration and eye abnormalities”.

Question: And the “prevention of loss of muscle force with a low K challenge (2 mM)” value [8]?
Answer: The value was “effective a preventing the loss of muscle force”.
